Assay results reported in US12208108B2, “Drug targets of delayed aging and human brain diseases” (Texas Tech University System, priority 2016, dated 2025).

Experiments:
Format in all cases: in vivo
[1] = tested on: BACHD mice; assay: Gene/protein levels, dendritic spines and mitochondrial morphology in BACHD mice
Procedure: (§1) The inventors treated BACHD mice and non-transgenic wild-type mice with Mdivi-1 for six months. Behavioral analysis were performed using rotarod (motor coordination), open field (locomotor activity), Y-maze (working memory) and tail suspension (neurological phenotype) in both treated and untreated BACHD and non-transgenic wild-type (WT) mice. […] The inventors also completed studies on the cell and molecular biology aspects of mitochondria and mutant huntingtin experiments. And also completed experiments on mitochondrial morphology (number and length) dendritic spine density in Mdivi-1-treated and untreated BACHD and non-transgenic WT mice.
Mdivi-1-treated BACHD mice had increased dendritic spines in striatal, cortical and hippocampal tissues of Mdivi-1-treated BACHD mice relative Mdivi-1-untreated BACHD mice. Mdivi-1-treated BACHD mice had increased mitochondrial length and reduced the size of mitochondrial size.

[2] = tested on: BACHD mice; assay: Behavioral analysis in BACHD mice; settings: BACHD mice treated for six months vs untreated BACHD mice
Procedure: Huntington's disease. To determine whether Mdivi1 reduces excessive mitochondrial fragmentation and enhances mitochondrial function and synaptic activity in bacterial artificial chromosome transgenic Huntington's disease (BACHD) mice.
as §1

[3] = tested on: transgenic Tau (P301L strain) mice; assay: Morris Water Maze, transgenic Tau mice; settings: 12-month-old Tau mice, 3 weeks
Description: (§2) Impact of MitoQ in Wild-type and Transgenic Tau mice: The inventors investigated the protective effects of MitoQ and daily exercise in 12-month-old transgenic Tau (P301L strain) and age-matched wild-type mice. The purpose of this study was to assess the lifestyle factors (antioxidant-enriched diet) and physical exercise (Treadmill) effects on cognitive behavior and AD pathologies (Abeta, P-tau, mitochondrial and synaptic) in AD mice.
(§3) First, the inventors fed wild-type, Tau and APP/PS1 mice with (500 uM of MitoQ in drinking water) and physical exercise (30 minutes on Treadmill) for 3 weeks. The inventors used 12-month-old animals (n=7) per group for all treatments (WT-MitoQ, WT-Treadmill, WT-MitoQ+Treadmill), Tau (Tau-MitoQ, Tau-Treadmill,Tau-MitoQ+Treadmill) and APP/PS1 (APP/PS1-MitoQ, APP/PS1-Treadmill, APP/PS1-MitoQ+Treadmill). Age-matched control mice were used for all genotypes in these studies. After 3-weeks treatment, the cognitive behavior using Morris Water Maze test was assessed.
(§4) The inventors conducted 11 trials (4 training and 7 actual) for latency to find the platform for all groups of mice.

[4] = tested on: wild-type mice; assay: Morris Water Maze, wild-type mice; settings: 12-month-old WT mice, 3 weeks, vs control WT mice
Description: as §2, §3, §4

[5] = treated vs untreated BACHD mice

SMILES | dendritic spines ([1]; striatal, cortical and hippocampal tissues, treated vs untreated BACHD mice) | mitochondrial length ([1]; treated BACHD mice) | size of mitochondrial size ([1]; treated BACHD mice) | Mitochondrial biogenesis (PGC1a, Nrf1, Nrf2 and TFAM) genes [1, 5] | autophagy (LC3A, LC3B, ATG5, Beclin 1) genes [1, 5] | mRNA and protein levels of fission genes (Drp1 and Fis1) [1, 5] | mitochondrial fusion genes (Mfn1, Mfn2, and Opa1) [1, 5] | mitophagy (PINK1, TERT, BCL2, BNIP3L) genes [1, 5] | synaptic (synaptophysin, PSD95, DARPP32) genes [1, 5] | behavioral phenotype (rotarod, open field, Y-maze, tail suspension) [2] | latency to reach platform ([3]; 500 uM in drinking water, vs MitoQ untreated Tau mice) | latency to reach platform ([3]; MitoQ+Treadmill, vs MitoQ+Treadmill untreated Tau mice) | latency to find the platform ([4]; 500 uM in drinking water) | latency to find the platform ([4]; MitoQ+Treadmill (30 minutes))
COc1cc(-n2c(S)nc3ccccc3c2=O)c(Cl)cc1Cl [Mdivi-1, 3-(2,4-Dichloro-5-methoxyphenyl)-2,3-dihydro-2-thioxo-4(1H)-quinazolinone, 3-(2,4-Dichloro-5-methoxyphenyl)-2-sulfanyl-4(3H)-quinazolinone] | increased | increased | reduced | increased | increased | significantly reduced | significantly increased | increased | increased | significantly improved | – | – | – | –
COC1=C(OC)C(=O)C(CCCCCCCCCC[P+](c2ccccc2)(c2ccccc2)c2ccccc2)=C(C)C1=O [MitoQ, Phosphonium, [10-(4,5-dimethoxy-2-methyl-3,6-dioxo-1,4-cyclohexadien-1-yl)decyl]triphenyl-, methanesulfonate] | – | – | – | – | – | – | – | – | – | – | much quicker | significantly faster | did not show any significant difference | significantly faster
